Test results taken from patent publication US20220362396A1, “AMINO-PYRAZINECARBOXAMIDE COMPOUNDS, CONJUGATES, AND USES THEREOF” (Silverback Therapeutics, Inc., priority 2018, published 2022).

Tests used:
TGFBR2 = target: T1, TGFBR2 (Homo sapiens, UniProt P37173); test: TGFBR2 RBC assay (enzyme inhibition assay, Reaction Biology Corp.); format: biochemical
T1 construct: purchased Reaction Biology Corp
Method: Compounds of the disclosure were also assayed by Reaction Biology Corp. using the TGFBR2 RBC assay (enzyme inhibition assay). […] NT refers to not tested.

[1] = test system: TGFβ/SMAD Signaling Pathway SBE reporter cell line; test: TGFβ reporter assay, in vitro small molecule screening (luciferase); format: cell-based; settings: TGFβ stimulation, luminescence
Method: TGFβ/SMAD Signaling Pathway SBE reporter cell line was obtained from BPS Bioscience. Cells were passed, expanded, and stored in liquid nitrogen as per the supplier's instructions with the exception that growth media is changed to DMEM-C with Geneticin (DMEM supplemented with 10% fetal bovine serum, 1×NEAA, 1 mM Pyruvate, 2 mM glutamine, 50 μg/mL penicillin, 50 U/mL streptomycin and 400 μg/mL of Geneticin). The assay media was MEM supplemented with 0.5% fetal bovine serum, 1×NEAA, 1 mM Pyruvate, 50 μg/mL penicillin and 50 U/mL streptomycin.
Test samples (at desired concentrations diluted in assay media) were added to a 96-well assay plate, 20 μL per well. Reporter cells were harvested from the tissue culture flasks by incubation in small quantity of PBS at 37° C. for two minutes after the media in the flask is removed and cells rinsed with PBS. Cells were counted and diluted in the assay media at approximately 0.5×10^6 cells/mL and then 80 μL/well of cells were added to the assay plate containing the 20 μL/well of test samples (or media only), and incubated for approximately 5-6 hours at 37° C. in a 5% CO2 humidified incubator. After that time, 15 μL of TGFβ diluted to 12 ng/mL in the assay media was added to the plate. Controls included TGFβ titration (from 50 to 0 ng/mL) without inhibitors, and media only (without cells, inhibitor or TGFβ). Plates were incubated at 37° C. in a 5% CO2 humidified incubator for 18 h. Luciferase substrate solution is subsequently added at 100 μL per well, incubated in the dark at room temperature for 15 min, and luminescence is measured using a luminometer. EC50 values and curve fits were obtained using Prism (GraphPad Software).

T1 sequence (P37173 23-567): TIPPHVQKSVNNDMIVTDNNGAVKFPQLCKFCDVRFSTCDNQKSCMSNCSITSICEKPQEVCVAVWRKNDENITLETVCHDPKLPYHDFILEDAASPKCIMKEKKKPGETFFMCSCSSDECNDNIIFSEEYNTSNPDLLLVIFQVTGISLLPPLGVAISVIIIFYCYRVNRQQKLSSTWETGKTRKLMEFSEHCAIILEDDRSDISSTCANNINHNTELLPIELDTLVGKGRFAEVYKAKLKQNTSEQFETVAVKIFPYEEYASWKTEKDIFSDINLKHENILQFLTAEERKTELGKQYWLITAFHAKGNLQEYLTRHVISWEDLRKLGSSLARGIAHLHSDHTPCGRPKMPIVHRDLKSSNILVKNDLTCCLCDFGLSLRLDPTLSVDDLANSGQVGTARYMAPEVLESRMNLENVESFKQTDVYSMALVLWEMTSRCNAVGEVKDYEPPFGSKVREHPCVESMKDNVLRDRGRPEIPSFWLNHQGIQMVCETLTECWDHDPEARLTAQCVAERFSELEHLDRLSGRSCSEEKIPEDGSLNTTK

Row | IC50 (TGFBR2) | EC50 [1] | SMILES
1 | < 50 nM | 100 to 1000 nM | Nc1ncc(-c2ccc(CCNC(=O)OCc3ccccc3)cc2)nc1C(=O)Nc1cnccc1-c1ccccn1 [Compound 25]
2 | < 50 nM | 100 to 1000 nM | Nc1ncc(-c2ccc(CCNC(=O)OCc3ccccc3)cc2)nc1C(=O)Nc1cnccc1-c1ccc2c(c1)OCO2 [Compound 26]
3 | > 1000 nM | > 1000 nM | [N-]=[N+]=NCC1COCCN1c1ccncc1NC(=O)c1nc(-c2ccc(CCNC(=O)OCc3ccccc3)cc2)cnc1N (stereo not drawn) [Compound 27]
4 | 100 to 1000 nM | 100 to 1000 nM | C[C@H]1CN(c2ccncc2NC(=O)c2nc(-c3ccc(CCNC(=O)OCc4ccccc4)cc3)cnc2N)CCO1 [Compound 28]
5 | > 1000 nM | 100 to 1000 nM | Nc1ncc(-c2ccc(CCNC(=O)OCc3ccccc3)cc2)nc1C(=O)Nc1cnccc1N1CCC(F)(F)CC1 [Compound 29]
6 | 100 to 1000 nM | > 1000 nM | NCC1CN(c2ccncc2NC(=O)c2nc(-c3ccc(CCNC(=O)OCc4ccccc4)cc3)cnc2N)CCO1 (stereo not drawn) [Compound 30]
7 | > 1000 nM | > 1000 nM | N#Cc1ccccc1-c1ccncc1NC(=O)c1nc(-c2ccc(CCNC(=O)OCc3ccccc3)cc2)cnc1N [Compound 31]
8 | 100 to 1000 nM | 50 to 100 nM | Cc1cnccc1-c1ccncc1NC(=O)c1nc(-c2ccc(CCNC(=O)OCc3ccccc3)cc2)cnc1N [Compound 32]
9 | > 1000 nM | 100 to 1000 nM | COc1cnccc1-c1ccncc1NC(=O)c1nc(-c2ccc(CCNC(=O)OCc3ccccc3)cc2)cnc1N [Compound 33]
10 | 100 to 1000 nM | > 1000 nM | Nc1ncc(-c2ccc(CCNC(=O)OCc3ccccc3)cc2)nc1C(=O)Nc1cnccc1-c1ccc(O)cc1 [Compound 34]
11 | 100 to 1000 nM | 100 to 1000 nM | Nc1ncc(-c2ccc(CCNC(=O)OCc3ccccc3)cc2)nc1C(=O)Nc1cnccc1N1CCOCC1=O [Compound 35]
12 | 100 to 1000 nM | 50 to 100 nM | Nc1ncc(-c2ccc(CCNC(=O)OCc3ccccc3)cc2)nc1C(=O)Nc1cnccc1N1CCSCC1 [Compound 36]
13 | > 1000 nM | > 1000 nM | NCC1COCCN1c1ccncc1NC(=O)c1nc(-c2ccc(CCNC(=O)OCc3ccccc3)cc2)cnc1N (stereo not drawn) [Compound 37]
14 | 100 to 1000 nM | 100 to 1000 nM | Nc1ncc(-c2ccc(CCNC(=O)OCc3ccccc3)cc2)nc1C(=O)Nc1cnccc1N1CCCOC1=O [Compound 38]
15 | 100 to 1000 nM | > 1000 nM | Nc1ncc(-c2ccc(CCNC(=O)OCc3ccccc3)cc2)nc1C(=O)Nc1cnccc1-c1cc[nH]c(=O)c1 [Compound 39]
16 | < 50 nM | > 1000 nM | Nc1cc(-c2ccncc2NC(=O)c2nc(-c3ccc(CCNC(=O)OCc4ccccc4)cc3)cnc2N)ccn1 [Compound 40]
17 | 100 to 1000 nM | 100 to 1000 nM | NCC1CN(c2ccncc2NC(=O)c2nc(-c3ccc(CCNC(=O)OCc4ccccc4)cc3)cnc2N)CCO1 (stereo not drawn) [Compound 41]
18 | 50 to 100 nM | 100 to 1000 nM | COC1CCN(c2ccncc2NC(=O)c2nc(-c3ccc(CCNC(=O)OCc4ccccc4)cc3)cnc2N)CC1 [Compound 42]
19 | < 50 nM | 100 to 1000 nM | Nc1ccc(-c2ccncc2NC(=O)c2nc(-c3ccc(CCNC(=O)OCc4ccccc4)cc3)cnc2N)cn1 [Compound 43]
20 | 100 to 1000 nM | 100 to 1000 nM | CNCCc1ccc(-c2cnc(N)c(C(=O)Nc3cnccc3N3CCOCC3)n2)cc1 [Compound 44]
21 | < 50 nM | 100 to 1000 nM | Nc1ncc(-c2ccc(CCNC(=O)OCc3ccccc3)c(F)c2)nc1C(=O)Nc1cnccc1N1CCOCC1 [Compound 46]
22 | > 1000 nM | > 1000 nM | Nc1ncc(-c2ccc(CCNC(=O)OCc3ccccc3)cc2)nc1C(=O)Nc1cnccc1N1CCOCCC1=O [Compound 47]
23 | < 50 nM | > 1000 nM | Nc1ncc(-c2ccc(CCNC(=O)OCc3ccccc3)cc2)nc1C(=O)Nc1cnccc1-c1ccnnc1 [Compound 48]
24 | > 1000 nM | > 1000 nM | Nc1ncc(-c2ccc(CCNC(=O)OCc3ccccc3)cc2)nc1C(=O)Nc1cnccc1-c1ccncn1 [Compound 49]
25 | < 50 nM | 100 to 1000 nM | Nc1ncc(-c2ccc(CCNC(=O)OCc3ccccc3)cc2F)nc1C(=O)Nc1cnccc1N1CCOCC1 [Compound 50]
26 | < 50 nM | 50 to 100 nM | CC(=O)CCC(=O)NCCc1ccc(-c2cnc(N)c(C(=O)Nc3cnccc3N3CCOCC3)n2)cc1 [Compound 51]
27 | > 1000 nM | 100 to 1000 nM | Nc1ncc(-c2ccc(CCNC(=O)OCc3ccccc3)cc2)nc1C(=O)Nc1cnccc1N1CCS(=O)(=O)CC1 [Compound 52]

Row | IC50 (TGFBR2) | EC50 [1] | SMILES
28 | > 1000 nM | > 1000 nM | COC1CCN(c2ccncc2NC(=O)c2nc(-c3ccc(CCNC(=O)OCc4ccccc4)cc3)cnc2N)C1 (stereo not drawn) [Compound 53]
29 | < 50 nM | 50 to 100 nM | Nc1ncc(-c2ccc(CCNC(=O)CCC(=O)c3ccccc3)cc2)nc1C(=O)Nc1cnccc1N1CCOCC1 [Compound 54]
30 | < 50 nM | < 50 nM | NCCc1ccc(-c2cnc(N)c(C(=O)Nc3cnccc3N3CCOCC3)n2)c(F)c1 [Compound 55]
31 | 50 to 100 nM | 50 to 100 nM | COc1cc(CCN)ccc1-c1cnc(N)c(C(=O)Nc2cnccc2N2CCOCC2)n1 [Compound 56]
32 | 100 to 1000 nM | 100 to 1000 nM | NCCc1cc(F)c(-c2cnc(N)c(C(=O)Nc3cnccc3N3CCOCC3)n2)c(F)c1 [Compound 57]
33 | 100 to 1000 nM | 50 to 100 nM | Nc1ncc(-c2ccc(S(=O)(=O)N3CCNCC3)cc2)nc1C(=O)Nc1cnccc1N1CCOCC1 [Compound 62]
34 | 100 to 1000 nM | 50 to 100 nM | Nc1ncc(-c2ccc(S(=O)(=O)N3CCN(C(=O)OCc4ccccc4)CC3)cc2)nc1C(=O)Nc1cnccc1N1CCOCC1 [Compound 63]
35 | < 50 nM | 50 to 100 nM | NCCOc1ccc(-c2cnc(N)c(C(=O)Nc3cnccc3N3CCOCC3)n2)cc1 [Compound 64]
36 | < 50 nM | 100 to 1000 nM | NCCCOc1ccc(-c2cnc(N)c(C(=O)Nc3cnccc3N3CCOCC3)n2)cc1 [Compound 65]
37 | 100 to 1000 nM | > 1000 nM | NCCCc1ccc(-c2cnc(N)c(C(=O)Nc3cc(F)ccc3N3CCOCC3)n2)cc1 [Compound 66]
38 | 50 to 100 nM | 50 to 100 nM | Nc1ncc(-c2ccc3c(c2)CNCC3)nc1C(=O)Nc1cnccc1N1CCOCC1 [Compound 67]
39 | < 50 nM | 100 to 1000 nM | CC(C)(C)OC(=O)N1CCc2ccc(-c3cnc(N)c(C(=O)Nc4cnccc4N4CCOCC4)n3)cc2C1 [Compound 68]
40 | > 1000 nM | > 1000 nM | NCCCc1ccc(-c2cnc(N)c(C(=O)Nc3cnccc3N3CCOCC3)c2)cc1 [Compound 69]
41 | < 50 nM | 50 to 100 nM | Nc1ncc(-c2ccc(N3CCNCC3)cc2)nc1C(=O)Nc1cnccc1N1CCOCC1 [Compound 70]
42 | < 50 nM | 100 to 1000 nM | CC(C)(C)OC(=O)N1CCN(c2ccc(-c3cnc(N)c(C(=O)Nc4cnccc4N4CCOCC4)n3)cc2)CC1 [Compound 71]
43 | 50 to 100 nM | 100 to 1000 nM | Nc1ncc(-c2ccc(CCNC(=O)OCc3ccccc3)cc2)nc1C(=O)Nc1cnccc1CN1CCCC1 [Compound 72]
44 | < 50 nM | 50 to 100 nM | NCCCCc1ccc(-c2cnc(N)c(C(=O)Nc3cnccc3N3CCOCC3)n2)cc1 [Compound 73]
45 | 50 to 100 nM | 100 to 1000 nM | Nc1ncc(-c2ccc(CCCCNC(=O)OCc3ccccc3)cc2)nc1C(=O)Nc1cnccc1N1CCOCC1 [Compound 74]
46 | < 50 nM | 100 to 1000 nM | NCCNC(=O)c1ccc(-c2cnc(N)c(C(=O)Nc3cnccc3N3CCOCC3)n2)cc1 [Compound 75]
47 | < 50 nM | 100 to 1000 nM | Nc1ncc(-c2ccc(C(=O)NCCNC(=O)OCc3ccccc3)cc2)nc1C(=O)Nc1cnccc1N1CCOCC1 [Compound 76]
48 | 50 to 100 nM | 50 to 100 nM | Nc1ncc(-c2ccc3c(c2)CCNC3)nc1C(=O)Nc1cnccc1N1CCOCC1 [Compound 77]
49 | < 50 nM | < 50 nM | CC(C)(C)OC(=O)N1CCc2cc(-c3cnc(N)c(C(=O)Nc4cnccc4N4CCOCC4)n3)ccc2C1 [Compound 78]
50 | > 1000 nM | 100 to 1000 nM | Nc1ncc(-c2ccc(CCCNC(=O)OCc3ccccc3)cc2)cc1C(=O)Nc1cnccc1N1CCOCC1 [Compound 79]
51 | 50 to 100 nM | 100 to 1000 nM | NCCNC(=O)Cc1ccc(-c2cnc(N)c(C(=O)Nc3cnccc3N3CCOCC3)n2)cc1 [Compound 80]
52 | 100 to 1000 nM | 50 to 100 nM | CC(C)(C)OC(=O)N1CCN(C(=O)c2ccc(-c3cnc(N)c(C(=O)Nc4cnccc4N4CCOCC4)n3)cc2)CC1 [Compound 81]
53 | 100 to 1000 nM | 100 to 1000 nM | Nc1ncc(-c2ccc(N3CCNCC3=O)cc2)nc1C(=O)Nc1cnccc1N1CCOCC1 [Compound 84]
54 | < 50 nM | < 50 nM | CC(C)(C)OC(=O)N1CCN(Cc2ccc(-c3cnc(N)c(C(=O)Nc4cnccc4N4CCOCC4)n3)cc2)C(=O)C1 [Compound 85]
